According to patent US20240189289A1, “INHIBITORS OF EPHB3 SIGNALING” (The Brigham and Women`s Hospital, Inc., priority 2021, published 2024):
Like-named read-outs stand apart in the source and are kept apart here.

Assays:
Assay type in all cases: biochemical
EphA4 = EphA4 (Homo sapiens, UniProt P54764); test: Eph receptor kinase activity assay (radiometric), EphA4; settings: for remaining activity at 0.01 µM: 10 nM compound, read-out: EphA4 % act 10 nM; for remaining activity at 0.1 µM: 100 nM compound, read-out: EphA4 % act 100 nM; for remaining activity at 0.3 µM: 300 nM compound, read-out: EphA4 % act 300 nM; for remaining activity at 0.03 µM: 30 nM compound, read-out: EphA4 % act 30 nM
EphB3 = biological target: T1, EphB3 (Homo sapiens, UniProt P54753); test: EphB3 radiometric kinase activity assay (33P ATP filter binding); settings: for remaining activity at 0.01 µM: 10 nM compound, read-out: EphB3 % act 10 nM; for remaining activity at 0.1 µM: 100 nM compound, read-out: EphB3 % act 100 nM; for remaining activity at 0.3 µM: 300 nM compound, read-out: EphB3 % act 300 nM; for remaining activity at 0.03 µM: 30 nM compound, read-out: EphB3 % act 30 nM; for IC50: read-out: EphB3 (nM) IC50
T1 sequence (P54753 34-998): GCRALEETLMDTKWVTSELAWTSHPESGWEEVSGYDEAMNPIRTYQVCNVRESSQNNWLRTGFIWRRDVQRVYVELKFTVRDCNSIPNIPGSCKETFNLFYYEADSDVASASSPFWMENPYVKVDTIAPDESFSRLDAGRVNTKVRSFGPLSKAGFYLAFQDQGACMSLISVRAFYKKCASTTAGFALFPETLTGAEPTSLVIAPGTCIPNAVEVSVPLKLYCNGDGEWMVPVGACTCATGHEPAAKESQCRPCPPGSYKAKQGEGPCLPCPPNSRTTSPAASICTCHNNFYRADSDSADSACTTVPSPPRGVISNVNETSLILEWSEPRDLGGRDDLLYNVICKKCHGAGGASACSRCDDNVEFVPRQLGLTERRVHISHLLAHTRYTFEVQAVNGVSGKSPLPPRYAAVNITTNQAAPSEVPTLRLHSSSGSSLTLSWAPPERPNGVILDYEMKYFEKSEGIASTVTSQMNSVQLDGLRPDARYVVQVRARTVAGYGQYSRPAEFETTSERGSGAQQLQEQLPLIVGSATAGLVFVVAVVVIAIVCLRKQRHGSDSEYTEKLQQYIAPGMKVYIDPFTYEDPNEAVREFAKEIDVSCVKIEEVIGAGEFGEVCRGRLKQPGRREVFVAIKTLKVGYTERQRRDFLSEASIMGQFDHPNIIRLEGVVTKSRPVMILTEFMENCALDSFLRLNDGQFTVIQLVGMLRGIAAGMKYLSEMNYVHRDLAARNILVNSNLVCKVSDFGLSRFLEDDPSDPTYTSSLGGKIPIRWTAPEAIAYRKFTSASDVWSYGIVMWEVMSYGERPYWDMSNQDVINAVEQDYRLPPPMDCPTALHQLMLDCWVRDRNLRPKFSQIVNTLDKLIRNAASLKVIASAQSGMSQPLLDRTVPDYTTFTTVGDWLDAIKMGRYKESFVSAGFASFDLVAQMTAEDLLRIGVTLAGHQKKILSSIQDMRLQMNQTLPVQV
Method: EphB3 radiometric kinase activity assay. To study the EphB3 kinase activity, a radioactive filter binding assay using 33P ATP was performed as described at the […] International Centre for Kinase profiling. […] The mix was harvested onto P81 filter plates and counts were read on a Topcount NXT.

EphA2 = EphA2 (Homo sapiens, UniProt P29317); test: Eph receptor kinase activity assay (radiometric), EphA2; settings: for remaining activity at 0.01 µM: 10 nM compound, read-out: EphA2 % act 10 nM; for remaining activity at 0.1 µM: 100 nM compound, read-out: EphA2 % act 100 nM; for remaining activity at 0.3 µM: 300 nM compound, read-out: EphA2 % act 300 nM; for remaining activity at 0.03 µM: 30 nM compound, read-out: EphA2 % act 30 nM
EphB4 = biological target: T2, EphB4 (Homo sapiens, UniProt P54760); test: Eph receptor kinase activity assay (radiometric), EphB4; settings: for remaining activity at 0.01 µM: 10 nM compound, read-out: EphB4 % act 10 nM; for remaining activity at 0.1 µM: 100 nM compound, read-out: EphB4 % act 100 nM; for remaining activity at 0.3 µM: 300 nM compound, read-out: EphB4 % act 300 nM; for remaining activity at 0.03 µM: 30 nM compound, read-out: EphB4 % act 30 nM
T2 sequence (P54760 16-987): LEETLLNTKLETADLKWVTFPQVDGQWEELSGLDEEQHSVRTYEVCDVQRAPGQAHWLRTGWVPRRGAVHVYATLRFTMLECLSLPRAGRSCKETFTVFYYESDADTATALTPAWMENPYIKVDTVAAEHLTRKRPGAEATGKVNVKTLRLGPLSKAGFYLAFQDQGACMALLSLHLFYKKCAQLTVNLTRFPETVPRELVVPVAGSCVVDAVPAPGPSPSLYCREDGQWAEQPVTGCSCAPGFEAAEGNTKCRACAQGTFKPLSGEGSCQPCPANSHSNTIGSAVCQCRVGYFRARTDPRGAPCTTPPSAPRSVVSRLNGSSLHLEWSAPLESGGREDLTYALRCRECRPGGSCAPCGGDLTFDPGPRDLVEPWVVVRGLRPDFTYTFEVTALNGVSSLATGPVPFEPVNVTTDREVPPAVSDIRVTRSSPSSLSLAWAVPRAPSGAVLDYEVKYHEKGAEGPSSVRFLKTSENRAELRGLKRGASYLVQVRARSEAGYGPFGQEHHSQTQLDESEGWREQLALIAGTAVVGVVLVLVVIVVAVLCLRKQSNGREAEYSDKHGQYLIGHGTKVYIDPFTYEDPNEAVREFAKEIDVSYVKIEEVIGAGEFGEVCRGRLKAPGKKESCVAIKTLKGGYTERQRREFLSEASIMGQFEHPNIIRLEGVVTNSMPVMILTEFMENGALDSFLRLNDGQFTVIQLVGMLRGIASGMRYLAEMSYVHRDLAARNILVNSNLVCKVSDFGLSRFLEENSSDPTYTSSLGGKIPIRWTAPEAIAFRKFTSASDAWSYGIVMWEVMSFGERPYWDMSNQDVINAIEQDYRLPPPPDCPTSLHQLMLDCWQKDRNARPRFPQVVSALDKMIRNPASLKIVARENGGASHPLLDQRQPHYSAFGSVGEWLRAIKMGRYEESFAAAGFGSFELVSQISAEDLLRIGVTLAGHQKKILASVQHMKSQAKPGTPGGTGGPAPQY

Sequence of EphA4 (P54764 20-986): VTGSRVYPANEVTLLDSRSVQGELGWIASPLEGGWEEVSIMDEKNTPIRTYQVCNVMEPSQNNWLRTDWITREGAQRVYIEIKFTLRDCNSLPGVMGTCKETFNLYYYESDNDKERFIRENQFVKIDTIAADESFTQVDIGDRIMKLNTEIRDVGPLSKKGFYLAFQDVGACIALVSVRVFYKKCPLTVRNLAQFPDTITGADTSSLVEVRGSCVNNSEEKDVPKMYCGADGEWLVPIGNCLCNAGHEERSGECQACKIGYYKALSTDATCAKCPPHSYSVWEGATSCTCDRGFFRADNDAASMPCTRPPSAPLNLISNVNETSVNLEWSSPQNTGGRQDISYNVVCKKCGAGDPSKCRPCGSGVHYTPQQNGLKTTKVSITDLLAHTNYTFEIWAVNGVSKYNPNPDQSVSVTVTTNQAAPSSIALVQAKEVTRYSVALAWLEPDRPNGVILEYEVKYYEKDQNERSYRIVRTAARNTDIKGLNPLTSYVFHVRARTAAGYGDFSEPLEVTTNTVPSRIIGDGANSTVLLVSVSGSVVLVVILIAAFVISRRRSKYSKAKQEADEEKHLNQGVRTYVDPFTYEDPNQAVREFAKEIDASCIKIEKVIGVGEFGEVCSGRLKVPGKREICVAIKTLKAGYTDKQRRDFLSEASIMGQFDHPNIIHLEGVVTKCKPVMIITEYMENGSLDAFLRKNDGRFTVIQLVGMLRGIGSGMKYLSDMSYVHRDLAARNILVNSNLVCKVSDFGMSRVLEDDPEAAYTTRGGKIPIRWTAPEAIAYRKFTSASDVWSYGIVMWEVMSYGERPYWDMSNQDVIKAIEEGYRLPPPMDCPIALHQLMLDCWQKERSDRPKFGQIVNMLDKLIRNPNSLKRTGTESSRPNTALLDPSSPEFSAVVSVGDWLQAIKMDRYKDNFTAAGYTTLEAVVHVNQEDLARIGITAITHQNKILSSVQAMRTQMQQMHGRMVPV
Sequence of EphA2 (P29317 24-976): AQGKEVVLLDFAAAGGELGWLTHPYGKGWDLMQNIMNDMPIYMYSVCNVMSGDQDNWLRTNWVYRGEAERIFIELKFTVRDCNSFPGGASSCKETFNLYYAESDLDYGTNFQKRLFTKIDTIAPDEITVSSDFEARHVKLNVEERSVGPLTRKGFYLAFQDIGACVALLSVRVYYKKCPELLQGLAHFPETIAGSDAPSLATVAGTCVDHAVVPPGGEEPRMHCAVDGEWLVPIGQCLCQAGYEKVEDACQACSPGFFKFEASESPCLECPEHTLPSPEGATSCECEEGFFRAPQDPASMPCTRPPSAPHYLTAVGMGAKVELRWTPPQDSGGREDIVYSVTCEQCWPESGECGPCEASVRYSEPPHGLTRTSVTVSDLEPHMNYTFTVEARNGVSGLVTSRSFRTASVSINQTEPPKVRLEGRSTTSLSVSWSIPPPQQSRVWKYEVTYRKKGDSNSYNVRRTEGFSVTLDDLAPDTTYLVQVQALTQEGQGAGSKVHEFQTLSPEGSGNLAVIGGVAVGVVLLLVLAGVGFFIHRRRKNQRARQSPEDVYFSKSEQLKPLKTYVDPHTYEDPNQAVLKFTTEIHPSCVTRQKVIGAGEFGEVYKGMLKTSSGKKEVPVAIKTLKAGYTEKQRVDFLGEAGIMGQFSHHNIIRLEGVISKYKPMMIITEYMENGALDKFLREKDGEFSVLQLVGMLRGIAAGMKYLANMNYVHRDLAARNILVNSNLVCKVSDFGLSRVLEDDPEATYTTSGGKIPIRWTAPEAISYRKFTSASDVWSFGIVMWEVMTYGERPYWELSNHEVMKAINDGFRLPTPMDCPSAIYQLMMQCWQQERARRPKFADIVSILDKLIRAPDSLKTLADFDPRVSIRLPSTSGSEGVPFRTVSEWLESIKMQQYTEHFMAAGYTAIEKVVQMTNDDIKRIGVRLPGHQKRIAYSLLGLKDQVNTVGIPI

Compound | remaining activity at 0.01 µM (EphA4) | remaining activity at 0.1 µM (EphA4) | remaining activity at 0.3 µM (EphA4) | remaining activity at 0.01 µM (EphB3) | remaining activity at 0.1 µM (EphB3) | remaining activity at 0.3 µM (EphB3) | remaining activity at 0.01 µM (EphA2) | remaining activity at 0.1 µM (EphA2) | remaining activity at 0.3 µM (EphA2) | remaining activity at 0.01 µM (EphB4) | remaining activity at 0.1 µM (EphB4) | remaining activity at 0.3 µM (EphB4) | remaining activity at 0.03 µM (EphA4) | remaining activity at 0.03 µM (EphB3) | remaining activity at 0.03 µM (EphA2) | remaining activity at 0.03 µM (EphB4) | also measured
O=C(Nc1ccccc1Cl)c1cnc2ccc(-c3ccccn3)cn12 [compound 112, N-(2-chlorophenyl)-6-(pyridin-2-yl)imidazo[1,2-a]pyridine-3-carboxamide] | 50% | 25% | 12% | 50% | 14% | 7% | 53% | 33% | 14% | 37% | 7% | 2% |  |  |  |  | 
O=C(Nc1ccccc1Cl)c1cnc2ccc(-c3cccnc3)cn12 [compound 113, N-(2-Chlorophenyl)-6-(pyridin-3-yl)imidazo[1,2-a]pyridine-3-carboxamide] | 53% | 26% | 19% | 49% | 16% | 11% | 52% | 29% | 17% | 30% | 7% | 4% |  |  |  |  | 
O=C(Nc1ccccc1Cl)c1cnc2ccc(-c3ccncc3)cn12 [compound 114, N-(2-Chlorophenyl)-6-(pyridin-4-yl)imidazo[1,2-a]pyridine-3-carboxamide] | 49% | 21% | 10% | 52% | 13% | 5% | 51% | 32% | 14% | 39% | 4% | 4% |  |  |  |  | 
O=C(Nc1ccccc1Cl)c1cnc2ccc(-c3ncccn3)cn12 [compound 115, N-(2-Chlorophenyl)-6-(pyrimidin-2-yl)imidazo[1,2-a]pyridine-3-carboxamide] | 104% | 54% | 34% | 108% | 55% | 28% | 115% | 67% | 40% | 89% | 32% | 9% |  |  |  |  | 

More lines, main results first:

remaining activity at 0.01 µM (EphA4) | remaining activity at 0.1 µM (EphA4) | remaining activity at 0.3 µM (EphA4) | remaining activity at 0.01 µM (EphB3) | remaining activity at 0.1 µM (EphB3) | remaining activity at 0.3 µM (EphB3) | remaining activity at 0.01 µM (EphA2) | remaining activity at 0.1 µM (EphA2) | remaining activity at 0.3 µM (EphA2) | remaining activity at 0.01 µM (EphB4) | remaining activity at 0.1 µM (EphB4) | remaining activity at 0.3 µM (EphB4) | remaining activity at 0.03 µM (EphA4) | remaining activity at 0.03 µM (EphB3) | remaining activity at 0.03 µM (EphA2) | remaining activity at 0.03 µM (EphB4) | Compound | also measured
99.5% | 82.4% |  | 112% | 42.9% |  | 76.4% | 61.3% |  | 96.5% | 103% |  | 77% | 65.5% | 84% | 103% | O=C(Nc1ccccc1Cl)c1cnc2ccc(-c3ccccc3O)cn12 [compound 116, N-(2-chlorophenyl)-6-(2-hydroxyphenyl)imidazo[1,2-a]pyridine-3-carboxamide] | IC50 (EphA4; Table 2, Example 12): 248 nM; IC50 (EphB3; Table 2, Example 12): 60 nM; IC50 (EphA2; Table 2, Example 12): 345 nM; IC50 (EphB4; Table 2, Example 12): 687 nM
74.7% | 89.8% |  | 110% | 102% |  | 95.8% | 80.8% |  | 104% | 86.7% |  | 75.9% | 110% | 83.8% | 95.6% | COc1cccc(NC(=O)c2cnc3ccc(C4CCNCC4)cn23)c1Cl [compound 117, N-(2-Chloro-3-methoxyphenyl)-6-(piperidin-4-yl)imidazo[1,2-a]pyridine-3-carboxamide] | IC50 (EphA4; Table 3, Example 13): < 10 nM; IC50 (EphB3; Table 3, Example 13): < 10 nM; IC50 (EphA2; Table 3, Example 13): < 10 nM; IC50 (EphB4; Table 3, Example 13): < 10 nM
87% | 47.3% |  | 116% | 91.4% |  | 104% | 82.1% |  | 97.4% | 66.5% |  | 55.9% | 73.9% | 83.5% | 97.5% | COc1ccc(Cl)c(NC(=O)c2cnc3ccc(C4CCNCC4)cn23)c1 [compound 118, N-(2-Chloro-5-methoxyphenyl)-6-(piperidin-4-yl)imidazo[1,2-a]pyridine-3-carboxamide] | IC50 (EphA4; Table 3, Example 13): 57 nM; IC50 (EphB3; Table 3, Example 13): 630 nM; IC50 (EphA2; Table 3, Example 13): 288 nM; IC50 (EphB4; Table 3, Example 13): 407 nM
80.3% | 72.8% |  | 116% | 78.3% |  | 71.3% | 45.1% |  | 87.2% | 76.3% |  | 74.2% | 90.3% | 61.2% | 75.9% | CN(C)CC(=O)N1CCC(c2ccc3ncc(C(=O)Nc4ccccc4Cl)n3c2)CC1 [compound 119, N-(2-Chlorophenyl)-6-(1-(dimethylglycyl)piperidin-4-yl)imidazo[1,2-a]pyridine-3-carboxamide] | 
